Where two headings read alike, the source gives them in different places.
Experiments:
[1] = Color stability of DragoCalm before and after Oxipres treatment (L*a*b* system, Δb*); format: physicochemical; design: key: L*a*b* Δb* = b* change before vs after Oxipres; higher = more discolored; conditions: color difference before/after Oxipres treatment
Protocol: (i.e. hydroxyacetophenone).
Furthermore, the color of the DragoCalm® samples was measured before and after the Oxipres treatment by using the L*a*b* system (Lico 690). The b* value describes the discoloration in the yellowish/red/brownish area, the Δ b* value describes the difference of color before and after Oxipres treatment. The higher the Δ b* value the more discolorated is the test solution.

[2] = Oxipres accelerated stability test of DragoCalm: Avenanthramide C content by HPLC before and after treatment; conditions: for degradation inhibitory activity, ranking of single stabilizers: as demonstrated by the examples; for Degradation (%) of Avenanthramide C: DragoCalm, Oxipres 5 bars oxygen, 24 hours, 70° C.
Protocol: The oxidative stability of the glycerol/water-based solution of an DragoCalm® extract as described below with different stabilizer was evaluated against a glycerol/water-based solution of an oat extract without stabilizer.
The Oxipres device allows the determination of oxidative resistance (shelf life) of oils. The device is a modification of the bomb method according to ASTM D941, which is based on oxidation with oxygen. The test runs under elevated pressure and temperature, through which the degradation process is accelerated. During the test, the consumption of oxygen results in a pressure drop in the vessel. Decrease of pressure indicates more consumption of oxygen and higher oxidation of the test product.
Thus, it is an accelerated stability test due to harder conditions such as temperature and pressure.
(§1) Stabilizers were presolved in DragoCalm® under stirring at room temperature or, if necessary at a temperature from 40 to 50° C. […] The DragoCalm® samples (15 g) were placed into the reaction vessel and were either exposed to 5 bars of oxygen for 24 hours at 70° C. using the Oxipres device.
(§2) The evaluation of the samples, i.e. the determination of content of Avns was determined by HPLC (comparison before and after Oxipres treatment).
The content of Avenanthramide C was determined by HPLC before and after Oxipres treatment.

[3] = Oxipres stability test of DragoCalm: Avenanthramide L; conditions: before and after Oxipres treatment
Protocol: as §1, §2
(§3) The test procedure and the evaluation of the samples were carried out in the same manner as described above for Avenanthramide C.

[4] = Oxipres stability test of DragoCalm: Avenanthramide B; conditions: before and after Oxipres treatment, additive 0.1 %
Protocol: as §1, §2, §3

[5] = during storage; cited from earlier work
[6] = 24 h, 0.1 %
Protocol: as §1, §2, §3

mast cell = conditions: through the interaction with the neurokinin-1 receptor; cited from earlier work
[7] = in DragoCalm after Oxipres treatment (5 bars oxygen, 24 hours, 70° C.), additive 0.10 %
[8] = in DragoCalm before Oxipres treatment, additive 0.10 %
[9] = in DragoCalm after Oxipres treatment (5 bars oxygen, 24 hours, 70° C.), additive 0.05 %
[10] = in DragoCalm before Oxipres treatment, additive 0.05 %

Compound	Δb* ([1]; additive 0.10 %)	Avenanthramide C End (ppm) [2, 7] [ppm]	Avenanthramide C Start (ppm) [2, 8] [ppm]	also measured
O=C(O)C(O)C(O)C(=O)O (stereo not shown) [Tartaric acid]	9.4	1	11	degradation inhibitory activity, ranking of single stabilizers [2]: most single effective alpha hydroxy acids
Trisodium Ethylenediamine Disuccinate	7.0	3	9	Degradation of Avenanthramide L (%) ([3]; additive 0.10 %): 0%; Degradation (%) of Avenanthramide C ([2]; additive 0.10 %): 66.7%; Degradation of Avenanthramide B (%) [4]: 7.4%
CC(O)C(=O)O (stereo not shown) [Lactic acid]	8.4	1	12	–
O=C(C=Cc1ccc(O)c(O)c1)Nc1ccc(O)cc1C(=O)O [Avenanthramide C, N-(3′-4′-dihydroxycinnamoyl)-5-hydroxyanthranilic acid]	–	–	–	stability (known, words) [5]: low stability
CC(=O)c1ccc(O)cc1 [4-Hydroxyacetophenone]	7.3	1	18	Degradation (%) of Avenanthramide C ([2]; additive 0.10 %): 94.4%; Degradation of Avenanthramide B (%) [4]: 18.5%
O=P(O)(O)O[C@H]1[C@H](OP(=O)(O)O)[C@@H](OP(=O)(O)O)[C@H](OP(=O)(O)O)[C@@H](OP(=O)(O)O)[C@H]1OP(=O)(O)O [Phytic Acid]	8.2	2	14	Degradation of Avenanthramide L (%) [6]: 20.0%
CC(C(=O)[O-])N(CC(=O)[O-])CC(=O)[O-].[Na+].[Na+].[Na+] (stereo not shown) [Trisodium MGDA, trisodium methylglycinediacetic acid]	–	–	–	Degradation of Avenanthramide L (%) ([3]; additive 0.2 %): 20.0%
O=C([O-])CN(CCN(CC(=O)[O-])CC(=O)O)CC(=O)O.[Na+].[Na+] [Disodium EDTA]	5.0	–	–	Avenanthramide C End (ppm) [2]: 9 ppm; Avenanthramide C Start (ppm) [2]: 16 ppm
O=C(CCc1ccc(O)cc1)Nc1ccccc1C(=O)O [Dihydroavenanthramide D, 2-{[3-(4-Hydroxyphenyl)propanoyl]amino}benzoic acid]	–	–	–	mast cell degranulation (mast cell): inhibits mast cell degranulation; stability (known, words) [5]: more stable in comparison to Avenanthramide C
O=C(O)CC(O)C(=O)O (stereo not shown) [Malic acid]	8.3	1	11	degradation inhibitory activity, ranking of single stabilizers [2]: most single effective alpha hydroxy acids
O=C([O-])CC[C@@H](C(=O)[O-])N(CC(=O)[O-])CC(=O)[O-].[Na+].[Na+].[Na+].[Na+] [Tetrasodium Glutamate Diacetate]	7.8	1	13	–
O=C1O[C@H]([C@@H](O)CO)C(O)=C1O [Ascorbic acid]	–	–	–	Δb* ([1]; additive 0.05 %): 8.2; degradation inhibitory activity, ranking of single stabilizers [2]: most effective single antioxidant; Avenanthramide C End (ppm) [2, 9]: 3 ppm; Avenanthramide C Start (ppm) [2, 10]: 16 ppm
O=C(O)CC(O)(CC(=O)O)C(=O)O [Citric acid]	8.2	1	18	Δb* ([1]; additive 0.05 %): 6.5; Avenanthramide C End (ppm) [2, 9]: 1 ppm; Avenanthramide C Start (ppm) [2, 10]: 26 ppm

— US20230131993A1 (priority 2020, published 2023)
